The text below walks through data of ChEMBL document CHEMBL5252642, “Design and synthesis of naturally-inspired SARS-CoV-2 inhibitors” (RSC Med Chem, 2023).

pEC50: −log10 of the molar value. The source made the active and inactive calls. The rule behind the calls is not given here.

System in one series: not listed separately
Nature of the series: Selectivity index, ratio of CC50 for human A549-ACE2 cells to EC50 for antiviral activity against SARS-CoV-2 Omicron BA1 variant infected human A549-ACE2 cells. Format: toxicity. To be noted: read-out: Ratio CC50/EC50.
Regarding `COc1ccc(CCN2C[C@H]3O[C@]4(C2)CN(S(=O)(=O)c2ccc(C)cc2)[C@]2(C(C)C)C=CC(=O)[C@H]3[C@H]42)cc1`, the selectivity ratio came out at 0.5.

In the case of `Cc1ccc(S(=O)(=O)N2C[C@@]34CN(CCc5c[nH]c6ccccc56)C[C@@H](O3)[C@@H]3[C@H]4[C@@]2(C(C)C)CC[C@@H]3O)cc1`, the selectivity ratio turned out to be 1.6.

Turning to `COc1ccc(CCN2C[C@H]3O[C@]4(C2)CN(S(=O)(=O)c2ccc(C)cc2)[C@]2(C(C)C)C=C[C@H](O)[C@H]3[C@H]42)cc1`, the selectivity ratio is 3.3. The same measure, in the same setting: the figure for `Cc1ccc(S(=O)(=O)N2C[C@@]34CN(Cc5nc6ccccc6s5)C[C@@H](O3)[C@H]3C(=O)CC[C@]2(C(C)C)[C@H]34)cc1` is 6.9; for `Cc1ccc(S(=O)(=O)N2C[C@@]34CN(Cc5ccccc5)C[C@@H](O3)[C@H]3C(=O)C=C[C@]2(C(C)C)[C@H]34)cc1` it is 0.9. As for `Cc1ccc(S(=O)(=O)N2C[C@@]34CN(Cc5ccccc5)C[C@@H](O3)[C@@H]3[C@H]4[C@@]2(C(C)C)C=C[C@@H]3O)cc1`, the selectivity ratio is over 3. The same measure, in the same setting: as for `Cc1ccc(S(=O)(=O)N2C[C@@]34CN(C(=O)c5ccc(F)cc5N)C[C@@H](O3)[C@@H]3[C@H]4[C@@]2(C(C)C)CC[C@@H]3O)cc1`, the figure is 1.4; as for `Cc1ccc(S(=O)(=O)N2C[C@@]34CN(Cc5ccccc5)C[C@@H](O3)[C@H]3[C@@H](Oc5ncccn5)CC[C@]2(C(C)C)[C@H]34)cc1`, 1; as for `Cc1ccc(S(=O)(=O)N2C[C@@]34CN(Cc5ccccc5)C[C@@H](O3)[C@H]3C(=O)CC[C@]2(C(C)C)[C@H]34)cc1`, 0.7. The same measure, in the same setting: the figure for `COc1cc(CN2C[C@H]3O[C@]4(C2)CN(S(=O)(=O)c2ccc(C)cc2)[C@]2(C(C)C)CC[C@H](OCCCN(C)C)[C@H]3[C@H]42)cc(OC)c1` is 5.7. On the same count and under the same terms, as for `Cc1ccc(S(=O)(=O)N2C[C@@]34CN(C(=O)c5cccs5)C[C@@H](O3)[C@@H]3[C@H]4[C@@]2(C(C)C)CC[C@@H]3O)cc1`, the figure is over 3; as for `Cc1ccc(S(=O)(=O)N2C[C@@]34CN(C)C[C@@H](O3)[C@H]3[C@@H](Oc5ncccn5)CC[C@]2(C(C)C)[C@H]34)cc1`, 0.8; as for `Cc1ccc(S(=O)(=O)N2C[C@@]34CN(Cc5nc6ccccc6s5)C[C@@H](O3)[C@@H]3[C@H]4[C@@]2(C(C)C)CC[C@@H]3O)cc1`, 1.6. Consider `COc1cc(CN2C[C@H]3O[C@]4(C2)CN(S(=O)(=O)c2ccc(C)cc2)[C@]2(C(C)C)CC[C@H](O)[C@H]3[C@H]42)cc(OC)c1`, for which the selectivity ratio amounted to 2.3.

For a further series, the system named is SARS-CoV-2. Nature of the series: Antiviral activity against SARS-CoV-2 Omicron BA1 variant infected human A549-ACE2 cells assessed as inhibition of viral replication. The note with it: Severe acute respiratory syndrome coronavirus 2, Omicron BA1, A549-ACE2. Format: functional, organism-based.
`COc1ccc(CCN2C[C@H]3O[C@]4(C2)CN(S(=O)(=O)c2ccc(C)cc2)[C@]2(C(C)C)C=C[C@H](O)[C@H]3[C@H]42)cc1`: the pEC50 is 5.46. For the molecule `COc1cc(CN2C[C@H]3O[C@]4(C2)CN(S(=O)(=O)c2ccc(C)cc2)[C@]2(C(C)C)CC[C@H](OCCCN(C)C)[C@H]3[C@H]42)cc(OC)c1`, the pEC50 is 5.36.

The next series deals with Severe acute respiratory syndrome coronavirus 2. As to the kind of experiment: Inhibition of SARS-CoV2 main protease C145A mutant by measuring luciferase signal at 0.02 to 125 uM by reverse-nanoluciferase reporter assay. To be noted: dose 0.02-125 µM. For orientation: In a reporter assay the amount or activity of a reporter protein is the signal.
On to `COc1ccc(CCN2C[C@H]3O[C@]4(C2)CN(S(=O)(=O)c2ccc(C)cc2)[C@]2(C(C)C)C=C[C@H](O)[C@H]3[C@H]42)cc1`, for which the inhibition result is “inactive”.

For `CC(C)C[C@H](NC(=O)OCc1ccccc1)C(=O)N[C@@H](C[C@@H]1CCNC1=O)C(O)S(=O)(=O)O` (stereo partly drawn), the inhibition result was “inactive”.

A word on the pEC50: it is −log10 of the EC50, conventionally taken in molar units.
